Key:
[1] = Lipophilicity by reversed-phase TLC on RP-18 WF254s plates with standardization; details: for φ 0 (intercept of the trend line with abscissa axis): molar fraction for which lipophilicity equals 0
[2] = known logP of standards; cited from earlier work

With `c1ccc(Nc2ccccc2)cc1` [Diphenylamine, diphenylamine, reference compound] the “S (slope of the trend line RM vs φ)” value ([1]; acetonitrile/water) was 4.1309, the “S (slope of the trend line RM vs φ)” value ([1]; dioxane/water) was 3.8375 and the “S (slope of the trend line RM vs φ)” value ([1]; isopropanol/water) was 4.6873. The “S (slope of the trend line RM vs φ)” value ([1]; methanol/water) was 2.9469.

For `CC(=O)Oc1ccc2c(C)cc(=O)oc2c1` [Compound 10, 7-Acetoxy-4-methylcoumarin], the “S (slope of the trend line RM vs φ)” value ([1]; acetonitrile/water) was 3.506, the “φ 0 (intercept of the trend line with abscissa axis)” value ([1]; acetonitrile/water) was 0.526 and the “S (slope of the trend line RM vs φ)” value ([1]; dioxane/water) was 3.3341. The “φ 0 (intercept of the trend line with abscissa axis)” value ([1]; dioxane/water) was 0.518, the “S (slope of the trend line RM vs φ)” value ([1]; isopropanol/water) was 3.436 and the “φ 0 (intercept of the trend line with abscissa axis)” value ([1]; isopropanol/water) was 0.448. The “S (slope of the trend line RM vs φ)” value ([1]; methanol/water) was 2.3174 and the “φ 0 (intercept of the trend line with abscissa axis)” value ([1]; methanol/water) was 0.680.

In the case of `O=C1Nc2ccccc2C1=O` [Isatine, isatine, reference compound], the LogP value [2] is given as 0.83, the “R M0 (lipophilicity extrapolated to 100 % water)” value ([1]; acetonitrile/water) is given as 0.7435 and the “S (slope of the trend line RM vs φ)” value ([1]; acetonitrile/water) is given as 2.0278. The “R M0 (lipophilicity extrapolated to 100 % water)” value ([1]; dioxane/water) was 0.3418, the “S (slope of the trend line RM vs φ)” value ([1]; dioxane/water) was 1.2132 and the “R M0 (lipophilicity extrapolated to 100 % water)” value ([1]; isopropanol/water) was 0.5885. The “S (slope of the trend line RM vs φ)” value ([1]; isopropanol/water) was 2.0065, the “R M0 (lipophilicity extrapolated to 100 % water)” value ([1]; methanol/water) was 0.6009 and the “S (slope of the trend line RM vs φ)” value ([1]; methanol/water) was 1.4786.

For `Nc1ccc(Cl)c(Cl)c1` [3,4-Dichloroaniline, 3,4-dichloroaniline, reference compound], the LogP value [2] is listed as 2.69, the “R M0 (lipophilicity extrapolated to 100 % water)” value ([1]; acetonitrile/water) is listed as 1.7807 and the “S (slope of the trend line RM vs φ)” value ([1]; acetonitrile/water) is listed as 3.2165. The “R M0 (lipophilicity extrapolated to 100 % water)” value ([1]; dioxane/water) was 1.9357, the “S (slope of the trend line RM vs φ)” value ([1]; dioxane/water) was 3.3499 and the “R M0 (lipophilicity extrapolated to 100 % water)” value ([1]; isopropanol/water) was 2.149. The “S (slope of the trend line RM vs φ)” value ([1]; isopropanol/water) was 4.4484, the “R M0 (lipophilicity extrapolated to 100 % water)” value ([1]; methanol/water) was 2.1151 and the “S (slope of the trend line RM vs φ)” value ([1]; methanol/water) was 3.2073.

With `CC(=O)c1cc2c(C)cc(=O)oc2cc1O` [Compound 11, 6-Acetyl-7-hydroxy-4-methylcoumarin] the “S (slope of the trend line RM vs φ)” value ([1]; acetonitrile/water) was 2.9356, the “φ 0 (intercept of the trend line with abscissa axis)” value ([1]; acetonitrile/water) was 0.425 and the “S (slope of the trend line RM vs φ)” value ([1]; dioxane/water) was 2.5162. The “φ 0 (intercept of the trend line with abscissa axis)” value ([1]; dioxane/water) was 0.409, the “S (slope of the trend line RM vs φ)” value ([1]; isopropanol/water) was 2.8074 and the “φ 0 (intercept of the trend line with abscissa axis)” value ([1]; isopropanol/water) was 0.362. For the same compound, the “S (slope of the trend line RM vs φ)” value ([1]; methanol/water) was 1.8855 and the “φ 0 (intercept of the trend line with abscissa axis)” value ([1]; methanol/water) was 0.526.

In the case of `CC(=O)Nc1ccc(Cl)c(Cl)c1` [3,4-Dichloroacetanilide, reference compound], the LogP value [2] is given as 2.96, the “S (slope of the trend line RM vs φ)” value ([1]; acetonitrile/water) is given as 3.5551 and the “S (slope of the trend line RM vs φ)” value ([1]; dioxane/water) is given as 3.0847. The “S (slope of the trend line RM vs φ)” value ([1]; isopropanol/water) was 4.1116 and the “S (slope of the trend line RM vs φ)” value ([1]; methanol/water) was 2.4827.

In the case of `Nc1ccc(Cl)cc1Cl` [2,4-Dichloroaniline, 2,4-dichloroaniline, reference compound], the LogP value [2] is listed as 2.91, the “R M0 (lipophilicity extrapolated to 100 % water)” value ([1]; acetonitrile/water) is listed as 1.8609 and the “S (slope of the trend line RM vs φ)” value ([1]; acetonitrile/water) is listed as 3.3029. For the same compound, the “R M0 (lipophilicity extrapolated to 100 % water)” value ([1]; dioxane/water) was 2.0135, the “S (slope of the trend line RM vs φ)” value ([1]; dioxane/water) was 3.3036 and the “R M0 (lipophilicity extrapolated to 100 % water)” value ([1]; isopropanol/water) was 2.1269. For the same compound, the “S (slope of the trend line RM vs φ)” value ([1]; isopropanol/water) was 4.2876, the “R M0 (lipophilicity extrapolated to 100 % water)” value ([1]; methanol/water) was 1.8895 and the “S (slope of the trend line RM vs φ)” value ([1]; methanol/water) was 2.7739.

In the case of `O=c1ccc2ccc(O)cc2o1` [Compound 7, umbelliferone], the “R M0 (lipophilicity extrapolated to 100 % water)” value ([1]; acetonitrile/water) is reported as 0.7232, the “S (slope of the trend line RM vs φ)” value ([1]; acetonitrile/water) is reported as 2.0876 and the “φ 0 (intercept of the trend line with abscissa axis)” value ([1]; acetonitrile/water) is reported as 0.346. For the same compound, the “R M0 (lipophilicity extrapolated to 100 % water)” value ([1]; dioxane/water) was 0.6676, the “S (slope of the trend line RM vs φ)” value ([1]; dioxane/water) was 1.8746 and the “φ 0 (intercept of the trend line with abscissa axis)” value ([1]; dioxane/water) was 0.356. The “R M0 (lipophilicity extrapolated to 100 % water)” value ([1]; isopropanol/water) was 0.5162, the “S (slope of the trend line RM vs φ)” value ([1]; isopropanol/water) was 1.6695 and the “φ 0 (intercept of the trend line with abscissa axis)” value ([1]; isopropanol/water) was 0.309. The “R M0 (lipophilicity extrapolated to 100 % water)” value ([1]; methanol/water) was 0.9623, the “S (slope of the trend line RM vs φ)” value ([1]; methanol/water) was 1.9022 and the “φ 0 (intercept of the trend line with abscissa axis)” value ([1]; methanol/water) was 0.506.

For `CC(=O)c1c(O)ccc2c(C)cc(=O)oc12` [Compound 9, 8-Acetyl-7-hydroxy-4-methylcoumarin], the “S (slope of the trend line RM vs φ)” value ([1]; acetonitrile/water) was 3.0614, the “φ 0 (intercept of the trend line with abscissa axis)” value ([1]; acetonitrile/water) was 0.464 and the “S (slope of the trend line RM vs φ)” value ([1]; dioxane/water) was 3.2472. For the same compound, the “φ 0 (intercept of the trend line with abscissa axis)” value ([1]; dioxane/water) was 0.508, the “S (slope of the trend line RM vs φ)” value ([1]; isopropanol/water) was 2.6277 and the “φ 0 (intercept of the trend line with abscissa axis)” value ([1]; isopropanol/water) was 0.446. For the same compound, the “S (slope of the trend line RM vs φ)” value ([1]; methanol/water) was 2.5967 and the “φ 0 (intercept of the trend line with abscissa axis)” value ([1]; methanol/water) was 0.697.

In the case of `CC(=O)Oc1cc(C)cc2oc(=O)cc(C)c12` [Compound 2a, 5-acetoxy-4,7-dimethylcoumarin], the “S (slope of the trend line RM vs φ)” value ([1]; acetonitrile/water) is reported as 3.6418, the “φ 0 (intercept of the trend line with abscissa axis)” value ([1]; acetonitrile/water) is reported as 0.481 and the “S (slope of the trend line RM vs φ)” value ([1]; dioxane/water) is reported as 3.2936. For the same compound, the “φ 0 (intercept of the trend line with abscissa axis)” value ([1]; dioxane/water) was 0.474, the “S (slope of the trend line RM vs φ)” value ([1]; isopropanol/water) was 3.8312 and the “φ 0 (intercept of the trend line with abscissa axis)” value ([1]; isopropanol/water) was 0.424. For the same compound, the “S (slope of the trend line RM vs φ)” value ([1]; methanol/water) was 2.5335 and the “φ 0 (intercept of the trend line with abscissa axis)” value ([1]; methanol/water) was 0.642.

In the case of `c1ccc(Cc2ccccc2)cc1` [Diphenylmethane, diphenylmethane, reference compound], the LogP value [2] is listed as 4.14, the “S (slope of the trend line RM vs φ)” value ([1]; acetonitrile/water) is listed as 5.2957 and the “S (slope of the trend line RM vs φ)” value ([1]; dioxane/water) is listed as 5.0853. For the same compound, the “S (slope of the trend line RM vs φ)” value ([1]; isopropanol/water) was 6.2485 and the “S (slope of the trend line RM vs φ)” value ([1]; methanol/water) was 4.067.

In the case of `CC(=O)c1c(C)cc2oc(=O)cc(C)c2c1OCC#N` [Compound 6, 6-acetyl-5-(cyanomethoxy)-4,7-dimethylchromen-2-one], the melting point is reported as 283 to 284 °C, the “S (slope of the trend line RM vs φ)” value ([1]; acetonitrile/water) is reported as 3.7596 and the “φ 0 (intercept of the trend line with abscissa axis)” value ([1]; acetonitrile/water) is reported as 0.517. The “S (slope of the trend line RM vs φ)” value ([1]; dioxane/water) was 3.2502, the “φ 0 (intercept of the trend line with abscissa axis)” value ([1]; dioxane/water) was 0.501 and the “S (slope of the trend line RM vs φ)” value ([1]; isopropanol/water) was 3.2079. For the same compound, the “φ 0 (intercept of the trend line with abscissa axis)” value ([1]; isopropanol/water) was 0.383, the “S (slope of the trend line RM vs φ)” value ([1]; methanol/water) was 2.3247 and the “φ 0 (intercept of the trend line with abscissa axis)” value ([1]; methanol/water) was 0.577.

For `N#CCOc1cc(=O)oc2ccccc12` [Compound 4, 4-(cyanomethoxy)chromen-2-one], the melting point was 204 °C, the “S (slope of the trend line RM vs φ)” value ([1]; acetonitrile/water) was 2.8179 and the “φ 0 (intercept of the trend line with abscissa axis)” value ([1]; acetonitrile/water) was 0.438. The “S (slope of the trend line RM vs φ)” value ([1]; dioxane/water) was 2.5467, the “φ 0 (intercept of the trend line with abscissa axis)” value ([1]; dioxane/water) was 0.452 and the “S (slope of the trend line RM vs φ)” value ([1]; isopropanol/water) was 2.2371. The “φ 0 (intercept of the trend line with abscissa axis)” value ([1]; isopropanol/water) was 0.401, the “S (slope of the trend line RM vs φ)” value ([1]; methanol/water) was 2.2036 and the “φ 0 (intercept of the trend line with abscissa axis)” value ([1]; methanol/water) was 0.607.

For `O=[N+]([O-])c1ccccc1O` [2-Nitrophenol, 2-nitrophenol, reference compound], the “R M0 (lipophilicity extrapolated to 100 % water)” value ([1]; acetonitrile/water) was 1.1246, the “S (slope of the trend line RM vs φ)” value ([1]; acetonitrile/water) was 2.5429 and the “R M0 (lipophilicity extrapolated to 100 % water)” value ([1]; dioxane/water) was 1.0657. For the same compound, the “S (slope of the trend line RM vs φ)” value ([1]; dioxane/water) was 2.2497, the “R M0 (lipophilicity extrapolated to 100 % water)” value ([1]; isopropanol/water) was 1.2375 and the “S (slope of the trend line RM vs φ)” value ([1]; isopropanol/water) was 2.9639. The “R M0 (lipophilicity extrapolated to 100 % water)” value ([1]; methanol/water) was 1.0469 and the “S (slope of the trend line RM vs φ)” value ([1]; methanol/water) was 1.9676.

In the case of `Cc1cc(=O)oc2cc(O)ccc12` [Compound 8, 7-hydroxy-4-methylcoumarin], the “S (slope of the trend line RM vs φ)” value ([1]; acetonitrile/water) is reported as 2.5539, the “φ 0 (intercept of the trend line with abscissa axis)” value ([1]; acetonitrile/water) is reported as 0.382 and the “S (slope of the trend line RM vs φ)” value ([1]; dioxane/water) is reported as 2.2314. The “φ 0 (intercept of the trend line with abscissa axis)” value ([1]; dioxane/water) was 0.409, the “S (slope of the trend line RM vs φ)” value ([1]; isopropanol/water) was 2.0405 and the “φ 0 (intercept of the trend line with abscissa axis)” value ([1]; isopropanol/water) was 0.372. The “S (slope of the trend line RM vs φ)” value ([1]; methanol/water) was 2.0525 and the “φ 0 (intercept of the trend line with abscissa axis)” value ([1]; methanol/water) was 0.567.

With `O=C(c1ccccc1)c1ccccc1` [Benzophenone, benzophenone, reference compound] the “S (slope of the trend line RM vs φ)” value ([1]; acetonitrile/water) was 4.1335, the “S (slope of the trend line RM vs φ)” value ([1]; dioxane/water) was 3.6381 and the “S (slope of the trend line RM vs φ)” value ([1]; isopropanol/water) was 4.4575. For the same compound, the “S (slope of the trend line RM vs φ)” value ([1]; methanol/water) was 3.2945.
